Assay results as given in paper PMC11009625, “Antibiotic class with potent in vivo activity targeting lipopolysaccharide synthesis in Gram-negative bacteria” (Proceedings of the National Academy of Sciences of the …, 2024).
≈ marks a conversion by molar mass, not a printed value. Read-outs that look alike come from different tables or passages of the source.

Key:
[1] = tested on: E. coli EC 106-09 (EN122); assay: Neutropenic mouse peritonitis model, E. coli; type: in vivo, mice; conditions: single sc dose, modeled efficacy curves; for ED50: Escherichia coli
Protocol: PK and safety studies were done the Latvian Institute for Organic Synthesis (Riga, Latvia) and in vivo efficacy studies were done at Statens Serum Institut (Copenhagen, Denmark). Assays were done in accordance with the relevant permits at the respective sites (SI Appendix). For PK studies, plasma samples were taken from mice dosed subcutaneously and the samples were analyzed by UPLC/MS/MS. For in vivo efficacy studies, neutropenic mice were infected intraperitoneally with 10^6 bacteria and treated with subcutaneously with test compounds 1 h after infection. The mice were euthanized 4 h after treatment and serially diluted samples of blood and peritoneal fluid were plated onto blood agar plates. Complete experimental details available in SI Appendix.
Lantmännen) and water. The experimental procedures were performed in accordance with the guidelines of the European Community and local laws and policies (Directive 2010/63/EU), and all of the procedures were approved by Food and Veterinary Service, Riga, Latvia. […]
Bacterial strains and inoculum. E. coli EC 106-09 (EN122) and K. pneumoniae SSI #3010 (EN124) are clinical isolates from Denmark. Bacterial suspensions for inoculation of mice were prepared […]
at room temperature from fresh overnight cultures on 5% blood agar plates produced by SSI diagnostica (Copenhagen Denmark). The inoculum was prepared immediately before inoculation by suspending colonies in sterile 0.9% saline to an optical density of 0.13 at 540 nm, giving a density of 10^8 CFU/ml and further diluted in 0.9% saline to 2 x 10^6 CFU/ml before injecting into the mice. For each experiment, the size of the inoculum was determined by making ten-fold dilutions in 0.9% saline, of which 20 µl was plated on 5% blood agar plates with subsequent counting of colonies after incubation overnight at 35°C in ambient air.
Mice. Outbred female CD-1 mice 26-30 gram (Envigo, Netherlands) were housed at the animal facility at Statens Serum Institut. The temperature was 22 °C +/- 2 °C and the humidity was 55 +/- 10%. The mice were housed in individually ventilated type 3 macrolone cages with bedding from Tapvei. The air changes per hour were approximately 8-12 times (70-73 times per hours inside cages), and light/dark period was in 12-hours interval of 6 a.m.- 6 p.m./6 p.m – 6 a.m.
The mice had ad libitum access to domestic quality drinking water and food Teklad Global diet 2916C-Envigo) and occasionally peanuts and sunflower seeds (Køge Korn A/S). Further, the animals were offered Enviro-Dri nesting material and cardboard houses (Bio-serv).
Mouse peritonitis model. The mice were rendered neutropenic by injecting 0.5 mL cyclophosphamide solution, 200 mg/kg intraperitoneally at 4 days and 100 mg/kg at 1 day prior to inoculation. 1 h before inoculation, mice were treated orally with […] Nurofen (20 mg ibuprofen/mL corresponding to approximately 30 mg/kg) as a pain relief. Inoculation was performed by intraperitoneal injection of 0.5 ml of the bacterial suspension containing log 6
CFU. The mice were treated subcutaneously with 0.25 – 0.30 mL based on weight, in the neck region with a single dose of compound at 1 hour post inoculation. Mice were monitored for clinical signs of discomfort. 4 h after treatment the mice were anesthetized and blood was collected by heart puncture into EDTA tubes and thereafter mice were euthanized by cervical dislocation and peritoneal washes were performed by injecting 2 ml of sterile saline intraperitoneally, followed by gentle massage of the abdomen and opening the peritoneum to collect fluid. Full blood and peritoneal fluids were serially diluted (ten-fold dilutions) and 20 µl was plated on blood agar plates produced at the SSI diagniostica (Copenhagen, Denmark) with subsequent counting of colonies after incubation overnight at 35°C in ambient. All animal experiments were approved by the National Committee of Animal Ethics – Animal Experiment Inspectorate under the Danish Ministry of Justice.
Statistical analyses. […]

efflux-defective E. coli = assay: MIC in phenotypic screen, tolC-inactivated E. coli; type: cell-based; conditions: Escherichia coli, read-out: MIC against efflux-defective E. coli
Excerpt: In a search for new drug targets and starting points for antibiotic discovery, we initiated a series of phenotypic screens, based on publicly available chemical libraries and information gathered from the literature, focusing on compounds for which there was some evidence of Gram-negative antibacterial activity. In our initial screens, we evaluated activity against tolC-inactivated mutants of E. coli. The TolC protein is the outer membrane channel protein that is required for activity of several of the most important efflux pumps in E. coli, and inactivation of TolC essentially abolishes efflux pump activity ([27]). […] We successfully isolated resistant mutants against this compound. […] We resynthesized the AZ1 compound and confirmed the involvement of LpxH by WGS of selected resistant clones (SI Appendix, Table S1) ([24]–[26]). Both our own, and previously published mutations, map to the lipid X (enzymatic reaction product) binding site of LpxH (SI Appendix, Table S1 and Fig. S1A) ([23]). […]
Minimum inhibitory concentration (MIC) values were determined according to the Clinical Laboratory Standards Institute guidelines. Frequency of resistance was determined by plating ~5 × 10^8 bacterial cells on agar-solidified media plates containing test compound at concentrations corresponding to four times the measured solid-media MIC of the strains. […]

[2] = blood, read-out: ED50, blood, E. coli
[3] = peritoneal fluid, read-out: ED50, peritoneal fluid, E. coli

SMILES	ED50 [1, 2]	ED50 [1, 3]	1-log effective dose, blood, E. coli ([1]; blood)	2-log effective dose, blood, E. coli ([1]; blood)	3-log effective dose, blood, E. coli ([1]; blood)	1-log effective dose, peritoneal fluid, E. coli ([1]; peritoneal fluid)	2-log effective dose, peritoneal fluid, E. coli ([1]; peritoneal fluid)	MIC (efflux-defective E. coli)
Cc1cc(C#N)nc(N2CCN(S(=O)(=O)c3ccc(NC(=O)c4cc(CNCCCN)ccc4N(C)S(C)(=O)=O)cc3)CC2)n1.Cl.Cl [EBL-3599]	20 mg/kg	29.6 mg/kg	28.3 mg/kg	42.8 mg/kg	63.4 mg/kg	45.9 mg/kg	70.0 mg/kg	–
Cc1cc(C#N)nc(N2CCN(S(=O)(=O)c3ccc(NC(=O)c4cc(CN5CC(CN)C5)ccc4N(C)S(C)(=O)=O)cc3)CC2)n1 [EBL-3647]	12.3 mg/kg	13.6 mg/kg	14.5 mg/kg	19.6 mg/kg	27.6 mg/kg	20.8 mg/kg	31.2 mg/kg	–
CN(c1ccccc1C(=O)Nc1ccc(S(=O)(=O)N2CCCCC2)cc1)S(C)(=O)=O [JEDI-852]	–	–	–	–	–	–	–	4 to 8 µg/mL (≈ 8.86 to 17.7 µM)
